Test results from PubChem BioAssay (NCI).
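GI50 marks 50% less growth. TGI is the concentration that stops growth completely.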

Assays:
Assay in all cases: growth of human tumour cells (NCI), 384-well format
[1] = test system: MDA-MB-468 breast
[2] = test system: HCC-2998 colon
[3] = test system: NCI-H460 NSCLC
[4] = test system: KM12 colon
[5] = test system: HS 578T breast
[6] = test system: UACC-257 melanoma
[7] = test system: HCT-15 colon
[8] = test system: TK-10 renal
[9] = test system: COLO 205 colon
[10] = test system: OVCAR-3 ovarian
[11] = test system: U251 glioblastoma
[12] = test system: MCF7 breast
[13] = test system: RXF 393 renal
[14] = test system: HOP-92 NSCLC
[15] = test system: MOLT-4 leukemia
[16] = test system: EKVX NSCLC
[17] = test system: DU-145 prostate
[18] = test system: HT29 colon
[19] = test system: SF-539 CNS
[20] = test system: OVCAR-8 ovarian
[21] = test system: MALME-3M melanoma
[22] = test system: IGROV1 ovarian
[23] = test system: SF-295 CNS
[24] = test system: SN12C renal
[25] = test system: SF-268 CNS
[26] = test system: M14 melanoma
[27] = test system: CCRF-CEM leukemia
[28] = test system: HOP-62 NSCLC
[29] = test system: SK-MEL-2 melanoma
[30] = test system: NCI-H322M lung
[31] = test system: SK-MEL-28 melanoma
[32] = test system: A498 renal
[33] = test system: RPMI-8226 leukemia
[34] = test system: OVCAR-4 ovarian
[35] = test system: HCT-116 colon
[36] = test system: ACHN renal
[37] = test system: NCI-H23 lung
[38] = test system: HL-60(TB) leukemia
[39] = test system: 786-0 renal
[40] = test system: NCI/ADR-RES ovarian
[41] = test system: BT-549 breast
[42] = test system: CAKI-1 renal
[43] = test system: SNB-75 CNS
[44] = test system: LOX IMVI melanoma
[45] = test system: NCI-H226 lung
[46] = test system: SNB-19 CNS
[47] = test system: SK-OV-3 ovarian
[48] = test system: K-562 leukemia
[49] = test system: A549 NSCLC
[50] = test system: NCI-H522 lung
[51] = test system: SK-MEL-5 melanoma
[52] = test system: UACC-62 melanoma
[53] = test system: PC-3 prostate
[54] = test system: SW-620 colon
[55] = test system: MDA-MB-435 melanoma

In the case of `COc1cc(OC)c(C(=O)C(CN(C)C)CN(C)C)cc1OC`, the GI50 [1] is reported as 0.317 µM, the TGI [1] is reported as 0.697 µM and the GI50 [2] is reported as 4.8 µM. For the same molecule, the TGI [2] was 18.6 µM, the GI50 [3] was 2.75 µM and the TGI [3] was 6.41 µM. For the same molecule, the GI50 [4] was 3.64 µM, the TGI [4] was 9.17 µM and the GI50 [5] was 7.53 µM. For the same molecule, the TGI [5] was 19.8 µM, the GI50 [6] was 1.41 µM and the TGI [6] was 2.81 µM. The GI50 [7] was 1.49 µM, the TGI [7] was 2.88 µM and the GI50 [8] was 1.54 µM. The TGI [8] was 3.04 µM, the GI50 [9] was 0.696 µM and the TGI [9] was 1.96 µM. The GI50 [10] was 1.71 µM, the TGI [10] was 3.37 µM and the GI50 [11] was 7.75 µM. For the same molecule, the TGI [11] was 20 µM, the GI50 [12] was 1.83 µM and the TGI [12] was 3.77 µM. The GI50 [13] was 1.92 µM, the TGI [13] was 3.44 µM and the GI50 [14] was 2.12 µM. The TGI [14] was 3.66 µM, the GI50 [15] was 0.225 µM and the TGI [15] was 0.591 µM. The GI50 [16] was 10.4 µM, the TGI [16] was 22.3 µM and the GI50 [17] was 4.56 µM. For the same molecule, the TGI [17] was 15 µM, the GI50 [18] was 3.42 µM and the TGI [18] was 12.9 µM. It also gave a GI50 [19] of 1.6 µM, a TGI [19] of 3.06 µM and a GI50 [20] of 1.44 µM. For the same molecule, the TGI [20] was 2.84 µM, the GI50 [21] was 0.999 µM and the TGI [21] was 2.17 µM. It also gave a GI50 [22] of 2.06 µM, a TGI [22] of 4.43 µM and a GI50 [23] of 19.2 µM. The TGI [23] was 39.3 µM, the GI50 [24] was 1.81 µM and the TGI [24] was 3.58 µM. The GI50 [25] was 17.2 µM, the TGI [25] was 31.1 µM and the GI50 [26] was 2.16 µM. For the same molecule, the TGI [26] was 4.3 µM, the GI50 [27] was 0.369 µM and the TGI [27] was 1.38 µM. It also gave a GI50 [28] of 22 µM, a TGI [28] of 36.6 µM and a GI50 [29] of 1.7 µM. The TGI [29] was 3.67 µM, the GI50 [30] was 18.4 µM and the TGI [30] was 32.5 µM. The GI50 [31] was 3.32 µM, the TGI [31] was 7.76 µM and the GI50 [32] was 12.5 µM. The TGI [32] was 25.1 µM, the GI50 [33] was 0.419 µM and the TGI [33] was 1.14 µM. The GI50 [34] was 1.81 µM, the TGI [34] was 3.21 µM and the GI50 [35] was 1.41 µM. For the same molecule, the TGI [35] was 2.82 µM, the GI50 [36] was 1.41 µM and the TGI [36] was 2.74 µM. For the same molecule, the GI50 [37] was 2.17 µM, the TGI [37] was 4.18 µM and the GI50 [38] was 0.146 µM. It also gave a TGI [38] of 0.279 µM, a GI50 [39] of 2.27 µM and a TGI [39] of 4.92 µM. It also gave a GI50 [40] of 2.12 µM, a TGI [40] of 4.11 µM and a GI50 [41] of 3.06 µM. The TGI [41] was 8.06 µM, the GI50 [42] was 1.02 µM and the TGI [42] was 2.22 µM. For the same molecule, the GI50 [43] was 19.8 µM, the TGI [43] was 34.1 µM and the GI50 [44] was 6.55 µM. It also gave a TGI [44] of 19.9 µM, a GI50 [45] of 1.91 µM and a TGI [45] of 4.42 µM. For the same molecule, the GI50 [46] was 14.4 µM, the TGI [46] was 27.7 µM and the GI50 [47] was 16.9 µM. It also gave a TGI [47] of 30.7 µM, a GI50 [48] of 6 µM and a TGI [48] of 18.1 µM. For the same molecule, the GI50 [49] was 14.1 µM, the TGI [49] was 27.6 µM and the GI50 [50] was 0.382 µM. For the same molecule, the TGI [50] was 1.57 µM, the GI50 [51] was 5.64 µM and the TGI [51] was 18.4 µM. For the same molecule, the GI50 [52] was 2.06 µM, the TGI [52] was 4.4 µM and the GI50 [53] was 3 µM. For the same molecule, the TGI [53] was 7.62 µM, the GI50 [54] was 1.14 µM and the TGI [54] was 2.44 µM. For the same molecule, the GI50 [55] was 3.27 µM and the TGI [55] was 8.94 µM.
